One assay deals with T1, human H1 (Homo sapiens, UniProt P35367).
T1 construct: host or cells: CHO-K1, also expressing mitochondrion-targeted aequorin
As to the kind of experiment: In vitro histamine H1 receptor cell-based aequorin bioluminescence antagonist assay. To be noted: CHO-K1 cells expressing human H1 and aequorin; histamine at EC80; read-out: H1 Antagonist EC50. In short, it runs like this: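 CHO-K1 cells stably expressing human H1 or H4 plus mitochondrial aequorin (H4 also with Gα16), loaded with 5 μM coelenterazine-h for 4 h at ~21 °C. Compounds preincubated 15 min at room temperature, then histamine at EC80 added.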

The target in the next assay is T2, human H4 (Homo sapiens, UniProt Q9H3N8).
T2 construct: host or cells: CHO-K1, also expressing mitochondrion-targeted aequorin and human Gα16
T2 sequence (Q9H3N8 whole entry): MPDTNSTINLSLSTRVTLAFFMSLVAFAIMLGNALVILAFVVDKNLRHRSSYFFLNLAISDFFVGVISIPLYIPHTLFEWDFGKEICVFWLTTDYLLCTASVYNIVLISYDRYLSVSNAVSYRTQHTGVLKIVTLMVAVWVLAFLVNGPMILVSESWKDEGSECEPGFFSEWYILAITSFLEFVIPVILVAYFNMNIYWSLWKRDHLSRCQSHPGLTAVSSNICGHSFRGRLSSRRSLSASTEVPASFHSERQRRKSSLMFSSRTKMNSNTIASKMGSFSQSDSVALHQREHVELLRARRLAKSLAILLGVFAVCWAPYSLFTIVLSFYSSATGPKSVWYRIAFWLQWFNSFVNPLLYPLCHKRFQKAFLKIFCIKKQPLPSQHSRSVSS
As to the kind of experiment: In vitro histamine H4 receptor cell-based aequorin bioluminescence antagonist assay. To be noted: CHO-K1 cells expressing human H4, aequorin and Gα16; histamine at EC80. On the procedure: In vitro Histamine Receptor Cell-Based Assays
The cell-based assays utilize an aequorin dependent bioluminescence signal. Doubly-transfected, stable CHO—K1 cell lines expressing human H1 or H4, mitochondrion-targeted aequorin, and (H4 only) human G protein Gα16 are obtained from Perkin-Elmer. Cells are maintained in F12 (Ham's) growth medium, containing 10% (vol./vol.) fetal bovine serum, penicillin (100 IU/mL), streptomycin (0.1 mg/mL), zeocin (0.25 mg/mL) and geneticin (0.40 mg/mL). Cell media components are from Invitrogen, Inc. One day prior to assay, the growth medium is replaced with the same, excluding zeocin and geneticin.
For assay preparation, growth medium is aspirated, and cells are rinsed with calcium-free, magnesium-free phosphate-buffered saline, followed by two to three minute incubation in Versene (Invitrogen, Inc.) at 37° C. Assay medium (DMEM:F12 [50:50], phenol-red free, containing 1 mg/mL protease-free bovine serum albumin) is added to collect the released cells, which are then centrifuged. The cell pellet is re-suspended in assay medium, centrifuged once more, and re-suspended in assay medium to a final density of 5×10^6 cells/mL. Coelenterazine-h dye (500 μM in ethanol) is added to a final concentration of 5 μM, and mixed immediately. The conical tube containing the cells is then wrapped with foil to protect the light-sensitive dye. The cells are incubated for four hours further at room temperature (approximately 21° C.) with end-over-end rotation to keep them in suspension.
Just before assay, the dye-loaded cells are diluted to 0.75×10^6 cells/mL (H1 receptor) or 1.5×10^6 cells/mL (H4 receptor) with additional assay medium. Cells are dispensed to 1536 well micro-titer plates at 3 μL/well. To assay receptor antagonism, 60 nl of 100× concentration test compounds in 100% dimethyl sulfoxide (DMSO) are dispensed to the wells, one compound per well, by passive pin transfer, and the plates are incubated for 15 minutes at room temperature. […] The pipette dispenses 3 μL/well of agonist (histamine, at twice the final concentration, where final concentration is a previously determined EC80) in assay medium, with concurrent bioluminescence detection. Agonist activity of test compounds is excluded by separate assays that measure response to test compounds immediately, without added histamine agonist.
CCD image capture on the Lumilux includes a 5 second baseline read prior to agonist addition, and generally a 40 second read per plate after agonist addition. A decrease in bioluminescence signal (measured either as area-under-the-curve, or maximum signal amplitude minus minimum signal amplitude) correlates with receptor antagonism in a dose dependent manner. The negative control is DMSO lacking any test compound. For antagonist assays, the positive controls are diphenhydramine (2-Diphenylmethoxy-N,N-dimethylethylamine, 10 μM final concentration, H1 receptor) or JNJ7777120 (1-[(5-Chloro-1H-indol-2-yl)carbonyl]-4-methyl-piperazine, 10 μM final concentration, H4 receptor). Efficacy is measured as a percentage of positive control activity.

Bounds are passed on as bounds.

The EC50 is the concentration at which the effect is half-maximal.

T1 sequence (P35367 whole entry): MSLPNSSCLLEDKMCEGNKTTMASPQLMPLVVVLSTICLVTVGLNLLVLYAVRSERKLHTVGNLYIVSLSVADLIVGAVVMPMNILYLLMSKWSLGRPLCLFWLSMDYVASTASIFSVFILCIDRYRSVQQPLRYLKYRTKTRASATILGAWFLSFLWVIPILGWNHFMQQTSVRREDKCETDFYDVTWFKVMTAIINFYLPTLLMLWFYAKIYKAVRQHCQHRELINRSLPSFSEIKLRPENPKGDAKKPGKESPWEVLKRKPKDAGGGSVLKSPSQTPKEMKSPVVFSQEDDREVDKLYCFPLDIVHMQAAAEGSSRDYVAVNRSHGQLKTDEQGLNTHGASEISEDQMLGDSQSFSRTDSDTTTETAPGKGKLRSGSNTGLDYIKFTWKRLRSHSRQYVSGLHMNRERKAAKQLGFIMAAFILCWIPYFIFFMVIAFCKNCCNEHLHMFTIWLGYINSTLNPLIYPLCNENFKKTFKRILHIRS

As to `COc1ccc(Nc2ncnc3scc(C)c23)cc1OC` [Example 147, N-(3,4-dimethoxyphenyl)-5-methylthieno[2,3-d]pyrimidin-4-amine], the EC50 at human H1 and on human H4 was more than 10 µM in each case.
`Cc1csc2ncnc(NC3CC(C)(C)NC(C)(C)C3)c12` [Example 150, 2,2,6,6-tetramethyl-N-{5-methylthieno[2,3-d]pyrimidin-4-yl}piperidin-4-amine]: the concentration giving a half-maximal response (EC50) at human H1 and on human H4 was more than 10 µM each time.
Consider `CCN(CC)CCCC(C)Nc1ncnc2scc(C)c12` (stereo not drawn) [Example 151, diethyl[4-({5-methylthieno[2,3-d]pyrimidin-4-yl}amino)pentyl]amine], for which the EC50 at human H1 and at human H4 was more than 10 µM each time.
Consider `Cc1csc2ncnc(N(CCC#N)Cc3ccccc3)c12` [Example 153, 3-[benzyl({5-methylthieno[2,3-d]pyrimidin-4-yl})amino]propanenitrile], for which the EC50 at human H1 and at human H4 was more than 10 µM each time.
In the case of `Cc1csc2ncnc(NCC3(O)CCCCC3)c12` [Example 158, 1-[({5-methylthieno[2,3-d]pyrimidin-4-yl}amino)methyl]cyclohexan-1-ol], the EC50 on human H1 and on human H4 was more than 10 µM each time.
With `Cc1csc2ncnc(NCC(=O)c3ccccc3)c12` [Example 161, 2-({5-methylthieno[2,3-d]pyrimidin-4-yl}amino)-1-phenylethan-1-one], the EC50 on human H1 and on human H4 was more than 10 µM each time.
Consider `Cc1csc2ncnc(NCc3ccc(N(C)C)cc3)c12` [Example 170, N-{[4-(dimethylamino)phenyl]methyl}-5-methylthieno[2,3-d]pyrimidin-4-amine], for which the EC50 at human H1 and at human H4 was more than 10 µM in each case.
As to `COc1ccc(CNc2ncnc3scc(C)c23)cc1O` [Example 171, 2-methoxy-5-[({5-methylthieno[2,3-d]pyrimidin-4-yl}amino)methyl]phenol], the EC50 at human H1 and at human H4 was more than 10 µM each time.
Turning to `Cc1csc2ncnc(NCc3ccccc3OC(F)(F)F)c12` [Example 172, 5-methyl-N-{[2-(trifluoromethoxy)phenyl]methyl}thieno[2,3-d]pyrimidin-4-amine], the EC50 at human H1 and on human H4 was more than 10 µM each time.
For the molecule `COc1ccc(C(=O)CNc2ncnc3scc(C)c23)cc1` [Example 174, 1-(4-methoxyphenyl)-2-({5-methylthieno[2,3-d]pyrimidin-4-yl}amino)ethan-1-one], the EC50 on human H1 and at human H4 was more than 10 µM in each case.
Consider `Cc1ccc(S(=O)(=O)NCCNc2ncnc3scc(C)c23)cc1` [Example 177, 4-methyl-N-[2-({5-methylthieno[2,3-d]pyrimidin-4-yl}amino)ethyl]benzene-1-sulfonamide], for which the EC50 on human H1 and on human H4 was more than 10 µM in each case.
Consider `Cc1csc2ncnc(N(C)C)c12` [Example 178, N,N,5-trimethylthieno[2,3-d]pyrimidin-4-amine], for which the EC50 on human H1 and on human H4 was more than 10 µM each time.
For the molecule `CCN(C)c1ncnc2scc(C)c12` [Example 179, N-ethyl-N,5-dimethylthieno[2,3-d]pyrimidin-4-amine], the EC50 at human H1 and at human H4 was more than 10 µM each time.
As for `C#CCN(C)c1ncnc2scc(C)c12` [Example 180, N,5-dimethyl-N-(prop-2-yn-1-yl)thieno[2,3-d]pyrimidin-4-amine], the EC50 at human H1 and on human H4 was more than 10 µM in each case.
As for `CCN(CC)c1ncnc2scc(C)c12` [Example 181, N,N-diethyl-5-methylthieno[2,3-d]pyrimidin-4-amine], the EC50 at human H1 and at human H4 was more than 10 µM each time.
With `CCCN(C)c1ncnc2scc(C)c12` [Example 182, N,5-dimethyl-N-propylthieno[2,3-d]pyrimidin-4-amine], the EC50 at human H1 and at human H4 was more than 10 µM throughout.
As for `Cc1csc2ncnc(N(C)CCO)c12` [Example 183, 2-[methyl({5-methylthieno[2,3-d]pyrimidin-4-yl})amino]ethan-1-ol], the EC50 on human H1 and on human H4 was more than 10 µM throughout.
Take `Cc1csc2ncnc(N(C)CCC#N)c12` [Example 184, 3-[methyl({5-methylthieno[2,3-d]pyrimidin-4-yl})amino]propanenitrile]: the EC50 on human H1 and at human H4 was more than 10 µM in each case.
In the case of `Cc1csc2ncnc(N(C)CC(C)C)c12` [Example 185, N,5-dimethyl-N-(2-methylpropyl)thieno[2,3-d]pyrimidin-4-amine], the EC50 on human H1 and on human H4 was more than 10 µM in each case.
For `CCN(c1ncnc2scc(C)c12)C(C)C` [Example 186, N-ethyl-5-methyl-N-(propan-2-yl)thieno[2,3-d]pyrimidin-4-amine], the concentration for a half-maximal effect (EC50) at human H1 and on human H4 was more than 10 µM each time.
`CCN(CCO)c1ncnc2scc(C)c12` [Example 188, 2-[ethyl({5-methylthieno[2,3-d]pyrimidin-4-yl})amino]ethan-1-ol]: the EC50 on human H1 and at human H4 was more than 10 µM each time.
As for `Cc1csc2ncnc(N3CCC(C)CC3)c12` [Example 191, 4-methyl-1-{5-methylthieno[2,3-d]pyrimidin-4-yl}piperidine], the EC50 on human H1 and on human H4 was more than 10 µM throughout.
With `Cc1csc2ncnc(N3CCCC3CO)c12` (stereo not drawn) [Example 193, (1-{5-methylthieno[2,3-d]pyrimidin-4-yl}pyrrolidin-2-yl)methanol], the EC50 on human H1 and on human H4 was more than 10 µM throughout.
Consider `Cc1csc2ncnc(N3CCC[C@@H]3CO)c12` [Example 194, [(2R)-1-{5-methylthieno[2,3-d]pyrimidin-4-yl}pyrrolidin-2-yl]methanol], for which the EC50 at human H1 and at human H4 was more than 10 µM in each case.
In the case of `CCCCN(CC)c1ncnc2scc(C)c12` [Example 195, N-butyl-N-ethyl-5-methylthieno[2,3-d]pyrimidin-4-amine], the EC50 on human H1 and at human H4 was more than 10 µM throughout.
Turning to `CCCN(CCC)c1ncnc2scc(C)c12` [Example 196, 5-methyl-N,N-dipropylthieno[2,3-d]pyrimidin-4-amine], the EC50 at human H1 and on human H4 was more than 10 µM each time.
For `Cc1csc2ncnc(N3CCSCC3)c12` [Example 197, 4-{5-methylthieno[2,3-d]pyrimidin-4-yl}thiomorpholine], the EC50 at human H1 and on human H4 was more than 10 µM throughout.
For `Cc1csc2ncnc(N(CCO)CCO)c12` [Example 198, 2-[(2-hydroxyethyl)({5-methylthieno[2,3-d]pyrimidin-4-yl})amino]ethan-1-ol], the EC50 at human H1 and on human H4 was more than 10 µM in each case.
Regarding `Cc1csc2ncnc(N3CC(C)CC(C)C3)c12` (stereo not drawn) [Example 199, 3,5-dimethyl-1-{5-methylthieno[2,3-d]pyrimidin-4-yl}piperidine], the EC50 at human H1 and on human H4 was more than 10 µM throughout.
With `Cc1csc2ncnc(N(C)C3CCCCC3)c12` [Example 200, N-cyclohexyl-N,5-dimethylthieno[2,3-d]pyrimidin-4-amine], the EC50 on human H1 and on human H4 was more than 10 µM each time.
For `Cc1csc2ncnc(N3C(C)CCCC3C)c12` (stereo not drawn) [Example 201, 2,6-dimethyl-1-{5-methylthieno[2,3-d]pyrimidin-4-yl}piperidine], the EC50 at human H1 and at human H4 was more than 10 µM in each case.
In the case of `Cc1csc2ncnc(N3C[C@@H](C)N[C@@H](C)C3)c12` [Example 203, (3R,5S)-3,5-dimethyl-1-{5-methylthieno[2,3-d]pyrimidin-4-yl}piperazine], the EC50 at human H1 and at human H4 was more than 10 µM in each case.
For the molecule `Cc1csc2ncnc(N3CCCC(CO)C3)c12` (stereo not drawn) [Example 204, (1-{5-methylthieno[2,3-d]pyrimidin-4-yl}piperidin-3-yl)methanol], the EC50 at human H1 and on human H4 was more than 10 µM throughout.
